Results from patent US20250320224A1 (DOMAIN THERAPEUTICS, priority 2022, published 2025).

Biological target: T1, human PAR-2 (hPAR-2) receptor (Homo sapiens, UniProt P55085)
T1 construct: expressed in HEK-293 cells in an endogenous manner; endogenous in cells; host or cells: HEK-293
T1 sequence (P55085 26-397): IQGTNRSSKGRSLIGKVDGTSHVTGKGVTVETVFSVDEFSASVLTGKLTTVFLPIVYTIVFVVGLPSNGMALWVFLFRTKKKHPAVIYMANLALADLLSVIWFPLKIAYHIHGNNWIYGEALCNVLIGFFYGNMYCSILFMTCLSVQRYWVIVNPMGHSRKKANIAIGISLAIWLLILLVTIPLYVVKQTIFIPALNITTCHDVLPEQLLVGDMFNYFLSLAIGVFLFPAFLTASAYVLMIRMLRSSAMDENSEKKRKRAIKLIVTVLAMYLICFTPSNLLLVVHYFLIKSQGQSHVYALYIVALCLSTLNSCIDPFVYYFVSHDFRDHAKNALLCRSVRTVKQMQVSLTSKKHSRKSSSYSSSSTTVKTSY
Test: In vitro human PAR-2 functional antagonist activity using calcium assays
Format: cell-based
Conditions: hPAR-2 endogenously expressed in HEK-293 cells; stimulated by 2-Furoyl-LIGRLO-NH2 peptide; Fluo4AM intracellular calcium, FLIPR Tetra
In short: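 HEK-293 cells with endogenous hPAR-2 were loaded with Fluo4AM and read for intracellular Ca2+ on FLIPR. After 10 min with compound alone, cells were stimulated with 2-Furoyl-LIGRLO-NH2 at the concentration giving 80% of maximal response. Inhibition was then recorded over 5 min relative to buffer and agonist-only signals.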

| IC50 [nM] | Compound |
| --- | --- |
| < 500 | Cc1ccc(N2CC(C)(C)c3nc(C(=O)N4CCN(c5ccc(CC(=O)O)cn5)CC4(C)C)cnc32)cc1Cl [Example 251, 2-(6-(4-(5-(3-chloro-4-methylphenyl)-7,7-dimethyl-6,7-dihydro-5H-pyrrolo[2,3-b]pyrazine-2-carbonyl)-3,3-dimethylpiperazin-1-yl)pyridin-3-yl)acetic acid] |
| < 500 | CC1(C)CN(c2ccc(Cl)c(Cl)c2)c2ncc(C(=O)N3CCN(c4ccc(CC(=O)O)cn4)CC3(C)C)nc21 [Example 221, 2-(6-(4-(5-(3,4-dichlorophenyl)-7,7-dimethyl-6,7-dihydro-5H-pyrrolo[2,3-b]pyrazine-2-carbonyl)-3,3-dimethylpiperazin-1-yl)pyridin-3-yl)acetic acid] |
| < 500 | CC1(C)C(=O)NCCN1C(=O)c1ccc2c(n1)C1(CCCC1)CN2c1cccc(Cl)c1 [Example 9, 4-(1′-(3-chlorophenyl)-1′,2′-dihydrospiro[cyclopentane-1,3′-pyrrolo[3,2-b]pyridine]-5′-carbonyl)-3,3-dimethylpiperazin-2-one] |
| < 500 | Cc1cc(N2CCN(C(=O)c3ccc4c(n3)C3(CN4c4ccc(Cl)c(F)c4)CC(C)(C)C3)C(C)(C)C2)nc(C)c1C(=O)O [Example 215, 6-(4-(1′-(4-chloro-3-fluorophenyl)-3,3-dimethyl-1′,2′-dihydrospiro[cyclobutane-1,3′-pyrrolo[3,2-b]pyridine]-5′-carbonyl)-3,3-dimethylpiperazin-1-yl)-2,4-dimethylnicotinic acid] |
| < 500 | CC1(C)CN(c2ccc(Cl)c(F)c2)c2ccc(C(=O)N3CCN(c4ccc(CC(=O)O)nc4)CC3(C)C)nc21 [Example 117, 2-(5-(4-(1-(4-chloro-3-fluorophenyl)-3,3-dimethyl-2,3-dihydro-1H-pyrrolo[3,2-b]pyridine-5-carbonyl)-3,3-dimethylpiperazin-1-yl)pyridin-2-yl)acetic acid] |
| < 500 | Cc1cc(N2CCN(C(=O)c3cnc4c(n3)C3(CCC3)CN4c3ccc(Cl)c(F)c3)C(C)(C)C2)nc(C)c1C(=O)O [Example 237, 6-(4-(5′-(4-chloro-3-fluorophenyl)-5′,6′-dihydrospiro[cyclobutane-1,7′-pyrrolo[2,3-b]pyrazine]-2′-carbonyl)-3,3-dimethylpiperazin-1-yl)-2,4-dimethylnicotinic acid] |
| 500 to 10000 | CC1(C)CN(c2ccc(Cl)c(F)c2)c2ccc(C(=O)N3CCC(CC(=O)O)CC3)nc21 [Example 35, 2-(1-(1-(4-chloro-3-fluorophenyl)-3,3-dimethyl-2,3-dihydro-1H-pyrrolo[3,2-b]pyridine-5-carbonyl)piperidin-4-yl)acetic acid] |
| < 500 | CC1(C)C(=O)NCCN1C(=O)c1ccc2c(n1)C1(CCOC1)CN2c1ccc(Cl)c(F)c1 (stereo not shown) [Example 58, 4-(1′-(4-chloro-3-fluorophenyl)-1′,2′,4,5-tetrahydro-2H-spiro[furan-3,3′-pyrrolo[3,2-b]pyridine]-5′-carbonyl)-3,3-dimethylpiperazin-2-one] |
| < 500 | Cc1cc(N2CCN(C(=O)c3cnc4c(n3)C(C)(C)CN4c3ccc(Cl)c(Cl)c3)C(C)(C)C2)nc(C)c1C(=O)O [Example 249, 6-(4-(5-(3,4-dichlorophenyl)-7,7-dimethyl-6,7-dihydro-5H-pyrrolo[2,3-b]pyrazine-2-carbonyl)-3,3-dimethylpiperazin-1-yl)-2,4-dimethylnicotinic acid] |
| < 500 | CC1(C)CN(c2ccc(CC(=O)O)cn2)CCN1C(=O)c1cnc2c(n1)C1(CCCC1)CN2c1ccc(Cl)c(F)c1 [Example 243, 2-(6-(4-(5′-(4-chloro-3-fluorophenyl)-5′,6′-dihydrospiro[cyclopentane-1,7′-pyrrolo[2,3-b]pyrazine]-2′-carbonyl)-3,3-dimethylpiperazin-1-yl)pyridin-3-yl)acetic acid] |
